Where a name gives a salt, the structure may show the parent alone.

The text below walks through data of patent US8580965B2, “Substituted sulfonamide compounds” (Gruenenthal GmbH, priority 2006, dated 2013).

The target in experiment [1] is T1, human B1R receptor (bradykinin 1 receptor) (Homo sapiens, UniProt P46663).
T1 construct: host or cells: CHO K1 cells (hB1R cells)
T1 sequence (P46663 1-353): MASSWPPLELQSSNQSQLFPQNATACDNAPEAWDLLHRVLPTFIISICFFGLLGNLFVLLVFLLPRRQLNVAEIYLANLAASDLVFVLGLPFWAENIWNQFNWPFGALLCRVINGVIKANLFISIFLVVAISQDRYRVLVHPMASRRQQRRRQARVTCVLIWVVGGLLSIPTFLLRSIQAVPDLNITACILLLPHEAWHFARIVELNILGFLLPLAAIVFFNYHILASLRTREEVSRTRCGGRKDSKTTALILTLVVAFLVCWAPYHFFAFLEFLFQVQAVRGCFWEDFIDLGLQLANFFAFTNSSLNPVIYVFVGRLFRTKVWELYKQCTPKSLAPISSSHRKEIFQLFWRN
Nature of the experiment: FLIPR Ca2+ assay (Fluo-4) on CHO K1 cells stably transfected with the human B1R gene; % activation and % inhibition at 10 μM. Type of experiment: cell-based. The following applies: CHO K1 hB1R cells, Ca2+ inflow after 0.5 nM Lys-Des-Arg9-bradykinin; for inhibition at 10 µM: CHO-K1, test substance 10 μM, read-out: B1R antagonism, human [10 μM] % inhibition. The method, boiled down:
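Fluo-4 Ca2+ flux on FLIPR in stable hB1R or rB1R CHO K1 lines, two additions. Agonism: 10 µM compound versus 0.5 nM Lys-Des-Arg9-BK (human) or 100 nM Des-Arg9-BK (rat); antagonism: same agonists applied 10 min later, suppression expressed against maximum achievable inhibition.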

For experiment [2], the target named is T2, B1R receptor of the rat (bradykinin 1 receptor) (Rattus norvegicus, UniProt P97583).
T2 construct: host or cells: CHO K1 cells (rB1R cells)
T2 sequence (P97583 1-337): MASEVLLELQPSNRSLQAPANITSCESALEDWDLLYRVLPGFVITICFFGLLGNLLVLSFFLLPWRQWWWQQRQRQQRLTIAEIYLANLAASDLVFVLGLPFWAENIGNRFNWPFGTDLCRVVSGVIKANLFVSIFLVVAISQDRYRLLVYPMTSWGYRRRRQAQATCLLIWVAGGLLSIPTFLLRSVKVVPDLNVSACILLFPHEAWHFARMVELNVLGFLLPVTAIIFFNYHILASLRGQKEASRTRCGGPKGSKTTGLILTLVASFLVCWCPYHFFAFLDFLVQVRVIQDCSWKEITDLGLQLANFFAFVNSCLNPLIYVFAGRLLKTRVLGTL
Nature of the experiment: FLIPR Ca2+ assay (Fluo-4) on CHO K1 cells stably transfected with the B1R gene of the rat; % activation and % inhibition at 10 μM. The experiment is classed as cell-based. The following applies: CHO K1 rB1R cells, Ca2+ inflow after 100 nM Des-Arg9-bradykinin; for inhibition at 10 µM: CHO-K1, test substance 10 μM, read-out: B1R antagonism, rat [10 μM] % inhibition. As to the method:
The agonistic or antagonistic action of substances can be quantified on the bradykinin receptor 1 (B1R) of the species human and rat with ectopically expressing cell lines (CHO K1 cells) and with the aid of a Ca^2+-sensitive dye (Fluo-4) using a fluorescent imaging plate reader (FLIPR). The indication in % activation is based on the Ca^2+ signal after addition of Lys-Des-Arg^9-bradykinin (0.5 nM) or Des-Arg^9-bradykinin (100 nM). Antagonists result in a suppression of the Ca^2+ influx following administration of the agonist. The % inhibition in comparison with the maximum achievable inhibition is indicated.
Functional Investigation on the Bradykinin 1 Receptor (B1R)
The agonistic or antagonistic action of substances can be determined on the bradykinin 1 receptor (B1R) of the human and rat species with the following assay. According to this assay, the Ca^2+ inflow through the channel is quantified with the aid of a Ca^2+-sensitive dyes (Fluo-4 type, Molecular Probes Europe BV, Leiden, The Netherlands) in a fluorescent imaging plate reader (FLIPR, Molecular Devices, Sunnyvale, USA).
Chinese Hamster Ovary cells (CHO K1 cells) which are stably transfected with the human B1R gene (hB1R cells, Euroscreen s.a., Gosselies, Belgium) or the B1R gene of the rat (rB1R cells, Axxam, Milan, Italy) are used. For functional investigations, these cells are plated-out on black 96-well plates with a clear base (BD Biosciences, Heidelberg, Germany) in a density of 20,000-25,000 cells/well. Overnight, the cells are incubated at 37° C. and 5% CO2 in culture medium (hB1R cells: Nutrient Mixture Ham's F12, Gibco Invitrogen GmbH, Karlsruhe, Germany; rB1R cells: D-MEM/F12, Gibco Invitrogen, Karlsruhe, Germany) with 10 vol. % FBS (foetal bovine serum, Gibco Invitrogen GmbH, Karlsruhe, Germany). On the following day, the cells are loaded with 2.13 μM Fluo-4 (Molecular Probes Europe BV, Leiden, The Netherlands) in HBSS buffer (Hank's buffered saline solution, Gibco Invitrogen GmbH, Karlsruhe, Germany) […] (Sigma-Aldrich, Taufkirchen, Germany) and 10 mM HEPES (Sigma-Aldrich, Taufkirchen, Germany) for 60 min at 37° C. The plates are subsequently washed 2× with HBSS buffer, and HBSS buffer which additionally contains 0.1% BSA (bovine serum albumin; Sigma-Aldrich, Taufkirchen, Germany), 5.6 mM glucose and 0.05% gelatine (Merck KGaA, Darmstadt, Germany) is added. After a further incubation of 20 minutes at room temperature, the plates are inserted into the FLIPR for Ca^2+ measurement. The Ca^2+-dependent fluorescence is measured here before and after addition of substances (λex=488 nm, λem=540 nm). The quantification is effected by measurement of the highest fluorescence intensity (FC, fluorescence counts) over time.
The FLIPR protocol comprises 2 additions of substance. Test substances (10 μM) are first pipetted on to the cells and the Ca^2+ inflow is compared with the control (hB1R: Lys-Des-Arg^9-bradykinin 0.5 nM; rB1R: Des-Arg^9-bradykinin 100 nM). The value in % activation based on the Ca^2+ signal after addition of Lys-Des-Arg^9-bradykinin (0.5 nM) or Des-Arg^9-bradykinin (100 nM) is obtained therefrom. After incubation for 10 minutes, 0.5 nM Lys-Des-Arg^9-bradykinin (hB1R) or 100 nM Des-Arg^9-bradykinin (rB1R) are applied and the inflow of Ca^2+ is likewise determined. Antagonists lead to a suppression of the Ca^2+ inflow. % inhibition compared with the maximum inhibition which can be achieved is calculated. The compounds show a good activity on the human and on the rat receptor. The following data were determined by way of example: […]

[3] abbreviates: test substance 10 μM, hydrochloride.

`CN(CCOCC(=O)N1CCC(O)(c2cccnc2)CC1)S(=O)(=O)c1c(Cl)cc(Cl)cc1Cl` [Example 5, 2,4,6-trichloro-N-(2-(2-(4-hydroxy-4-(pyridin-3-yl)piperidin-1-yl)-2-oxoethoxy)ethyl)-N-methylphenylsulfonamide hydrochloride]: the “B1R antagonism, human [10 μM] % inhibition” value in experiment [1] (setting [3]) was 101.04%. Further, the “B1R antagonism, rat [10 μM] % inhibition” value in experiment [2] (setting [3]) is listed as 95.11%.
Turning to `O=C(COCC1CCCCN1S(=O)(=O)c1ccccc1C(F)(F)F)N1CCC(O)(c2cccnc2)CC1` (stereo not shown) [Example 172, 1-(4-hydroxy-4-(pyridin-3-yl)piperidin-1-yl)-2-((1-(2-(trifluoromethyl)phenylsulfonyl)piperidin-2-yl)methoxy)ethanone], the figures for the inhibition at 10 µM in experiment [1] and in experiment [2] were 103% and 105%, respectively.
Regarding `COc1cc(C)c(S(=O)(=O)N2CCCCC2COCC(=O)N2CCC(O)(c3ccc(Br)cc3)CC2)c(C)c1` (stereo not shown) [Example 243, 1-(4-(4-bromophenyl)-4-hydroxypiperidin-1-yl)-2-((1-(4-methoxy-2,6-dimethylphenylsulfonyl)piperidin-2-yl)methoxy)ethanone], the inhibition (commonly the relative decrease from the control value, in per cent) at 10 µM in experiment [1] was found to be 104%; in experiment [2], 96.8%.
As for `COc1cc(C)c(S(=O)(=O)N(CCOCC(=O)N2CCC(O)(c3ccc(Br)cc3)CC2)CC2CC2)c(C)c1C` [Example 205, N-(2-(2-(4-(4-bromophenyl)-4-hydroxypiperidin-1-yl)-2-oxoethoxy)ethyl)-N-(cyclopropylmethyl)-4-methoxy-2,3,6-trimethylphenylsulfonamide], the results for the inhibition at 10 µM in experiment [1] and in experiment [2] were 106% and 100%, respectively.
As to `COc1cc(C)c(S(=O)(=O)N2CCCC2COCC(=O)N2CCC(O)(Cc3ccccc3)CC2)c(C)c1` (stereo not shown) [Example 216, 1-(4-benzyl-4-hydroxypiperidin-1-yl)-2-((1-(4-methoxy-2,6-dimethylphenylsulfonyl)pyrrolidin-2-yl)methoxy)ethanone], the inhibition at 10 µM is 102% in experiment [1] and 100% in experiment [2].
Take `COc1cc(C)c(S(=O)(=O)N(C)CCOCC(=O)N2CCC(O)(Cc3ccncc3)CC2)c(C)c1` [Example 280, N-(2-(2-(4-hydroxy-4-(pyridin-4-ylmethyl)piperidin-1-yl)-2-oxoethoxy)ethyl)-4-methoxy-N,2,6-trimethylphenylsulfonamide]: the inhibition at 10 µM in experiment [1] and in experiment [2] was 100% throughout.
For the compound `COc1cc(C)c(S(=O)(=O)N2CCCCC2COCC(=O)N2CCC(O)(c3cccc(F)c3)CC2)c(C)c1` (stereo not shown) [Example 142, 1-(4-(3-fluorophenyl)-4-hydroxypiperidin-1-yl)-2-((1-(4-methoxy-2,6-dimethylphenylsulfonyl)piperidin-2-yl)methoxy)ethanone], the inhibition at 10 µM turned out to be 103% in experiment [1] and 100% in experiment [2].
For `COc1cc(C)c(S(=O)(=O)N(CCOCC(=O)N2CCC(O)(c3ccc(Br)cc3)CC2)CC(C)C)c(C)c1C` [Example 210, N-(2-(2-(4-(4-bromophenyl)-4-hydroxypiperidin-1-yl)-2-oxoethoxy)ethyl)-N-isobutyl-4-methoxy-2,3,6-trimethylphenylsulfonamide], in that order: 105% and 101%.
With `Cc1cc(S(=O)(=O)N(C)CCOCC(=O)N2CCC(O)(c3ccc(Br)cc3)CC2)c(C)cc1Cl` [Example 151, N-(2-(2-(4-(4-bromophenyl)-4-hydroxypiperidin-1-yl)-2-oxoethoxy)ethyl)-4-chloro-N,2,5-trimethylphenylsulfonamide], the inhibition at 10 µM worked out at 97.8% in experiment [1] and 86.9% in experiment [2].
In the same order, the values of `CN(CCOCC(=O)N1CCC(O)(c2ccccn2)CC1)S(=O)(=O)c1cc(F)cc(F)c1` [Example 70, 3,5-difluoro-N-{2-[2-(4′-hydroxy-3′,4′,5′,6′-tetrahydro-2′H-[2,4′]bipyridinyl-1′-yl)-2-oxo-ethoxy]-ethyl}-N-methyl-phenylsulfonamide] are 7.12% and -12.2%.
For `COc1cc(C)c(S(=O)(=O)N(C)CCOCC(=O)N2CCC(O)(CCc3cccnc3)CC2)c(C)c1` [Example 140, N-(2-(2-(4-hydroxy-4-(2-(pyridin-3-yl)ethyl)piperidin-1-yl)-2-oxoethoxy)ethyl)-4-methoxy-N,2,6-trimethylphenylsulfonamide], in that order: 104% and 101%.
In the same order, the values of `O=C(COCC1CCCN1S(=O)(=O)c1cc(Cl)sc1Cl)N1CCC(O)(c2ccc(Br)cc2)CC1` (stereo not shown) [Example 224, 1-(4-(4-bromophenyl)-4-hydroxypiperidin-1-yl)-2-((1-(2,5-dichlorothiophen-3-ylsulfonyl)pyrrolidin-2-yl)methoxy)ethanone] are 49.1% and 102%.
Regarding `Cc1cc(S(=O)(=O)N(C)CCOCC(=O)N2CCC(O)(c3ccc(Cl)cc3)CC2)c(C)s1` [Example 256, N-(2-(2-(4-(4-chlorophenyl)-4-hydroxypiperidin-1-yl)-2-oxoethoxy)ethyl)-N,2,5-trimethylthiophene-3-sulfonamide], the inhibition at 10 µM came out at 56.3% in experiment [1] and 90.7% in experiment [2].
In the same order, the values of `Cc1cc(C)c(S(=O)(=O)N2Cc3ccccc3CC2COCC(=O)N2CCC(O)(c3ccc(Cl)cc3)CC2)c(C)c1` (stereo not shown) [Example 200, 1-(4-(4-chlorophenyl)-4-hydroxypiperidin-1-yl)-2-((2-(mesitylsulfonyl)-1,2,3,4-tetrahydroisoquinolin-3-yl)methoxy)ethanone] are 29.8% and 98.1%.
